Where a name gives a salt, the structure may show the parent alone. Peptide text beside a SMILES is read from it.
Tests used:
[1] = test system: germ cells in seminiferous tubules; assay: DOX-induced germ cell apoptosis in mouse seminiferous tubule cultures ex vivo (TUNEL); format: cell-based; conditions: 12 hours
Experimental: A total of 15 young adult (12-13 week-old) mice were used for these ex vivo studies. The animals were sacrificed with a 5% pentobarbital (200 mg/Kg) IP injection. Testes were dissected and after removing the tunica albuginea, seminiferous tubules isolated from testes were cut into small segments under a dissecting microscope and light and dark segments were separated by dissection. Ten to twelve segments were placed (2 mm in length) in each well on a six well plate with 2 ml serum free Ham F-10 culture medium (GIBCO, Life Technologies, Thermo Fisher Scientific Corp., Carlsbad, Calif.) with the following treatments: control (Con, n=10), heat (43° C., 15 minutes, used as a positive control, n=10); HN 10 μg/mL (n=9); DOX 10 mcM (Dox10, n=10); and DOX 10 mcM+Humanin 10 μg/mL (Dox10+HN, n=10). For these experiments, n represents the total number of times the treatment was repeated using different animals. After 12 hours of incubation at 34° C. the seminiferous tubules from each treatment group were used to make “squashed” seminiferous tubule samples on a slide for TUNEL (TdT-mediated dUTP nick-end labeling) assay to detect germ cell apoptosis (Erkkila, et al., 1997; Toppari & Parvinen, 1985). To quantify the rate of germ cell apoptosis under a light microscope at 400× magnification, a square grid fitted within the eyepiece provided a reference area of 62,500 μm^2. The TUNEL positive apoptotic germ cells within the frame of grid were counted in 4 segments of seminiferous tubules in each group. The incidence of germ cell apoptosis was expressed as the number of apoptotic germ cells per mm^2.
A total of 15 mice were used for ex vivo studies. The animals were sacrificed and seminiferous tubules isolated from testes were cut into small segments under a dissecting microscope to identify light (early stages I-IV and late stages XI-XII) of the seminiferous epithelium) and dark (middle stages VII-VIII) segments. […] To quantify the rate of germ cell apoptosis, the squashed segments of seminiferous tubules were examined with an American Optical Microscope (Scientific Instruments, Buffalo, N.Y.) with a 40× objective and a 10× eyepiece lens. […] The TUNEL positive apoptotic germ cells within the frame of grid were counted in 4 segments of seminiferous tubules in each group. The incidence of germ cell apoptosis was expressed as the number of apoptotic germ cells per mm^2.

male germ cells [2] = format: in vivo; conditions: single IP; HN, HN-S7A, HN-C8P, HN-L12A 40 mg/Kg BW; HNG, HNG-F6A 5 mg/Kg BW; 24 hours
Experimental: For the HN analog experiments, male mice were divided into seven groups (n=4-5 per group) and received one of the following treatments and sacrificed after 24 hours: 1) vehicle (control); 2) a single intra-peritoneal (IP) injection of HN peptide [HN, 40 mg/Kg body weight (BW)]; 3) a single IP injection of CP (CP, 200 mg/Kg BW); 4) IP injection of CP and HN (CP+HN); 5) a single IP injection of each HN analog (HNG 5 mg/Kg BW, HNG-F6A 5 mg/Kg BW, HN-S7A 40 mg/Kg BW, HN-C8P 40 mg/Kg BW, or HN-L12A 40 mg/Kg BW); 6) IP injection of CP and each HN analog (CP+HNG, HNG-F6A, HN-S7A, HN-C8P, or HN-L12A); and 7) IP injection of CP+HN+HN analog (HN-S7A, HN-C8P, or HN-L12A; to assess whether the analogs has enhancing or inhibitory effect on HN).
To facilitate testicular fixation by using a whole-body perfusion technique, all animals were injected with heparin (130 IU/100 g BW, IP) 15 min before a lethal injection of sodium pentobarbital (200 mg/kg BW, IP) (Lue Y H, et al., 1999). One testis was removed and weighed after perfusion with saline. Portions of testicular parenchyma were snap frozen in liquid nitrogen, and stored at −80 C for Western blotting. The other testis was fixed by vascular perfusion with Bouin's solution, and processed with routine paraffin embedding for in situ detection of apoptosis.
Detection of apoptotic cells was performed in Bouin's'-fixed, paraffin-embedded testicular sections by the terminal deoxynucleotidyl transferase (TdT)-mediated deoxy-UTP nick end labeling (TUNEL) technique (Sinha Hikim A P, et al., 1997) using an ApopTag-peroxidase kit (Chemicon International, Inc., Temecula, Calif.). Enumeration of the Sertoli cell nuclei with distinct nucleoli and apoptotic germ cell population was quantified at stages I-IV (early stages), stages VII-VIII (middle stages) and stages XI-XII (late stages) of the seminiferous epithelial cycle using an Olympus BH-2 microscope (New Hyde Park, N.Y.). Stages were identified according to the criteria proposed by Russell et al for paraffin sections (Russell L, 1977). The rate of germ cell apoptosis (apoptotic index, AI) was expressed as the number of apoptotic germ cells per Sertoli cells (Sinha Hikim A P, et al., 1997).

testosterone = conditions: with or without EDS pre-treatment
male germ cells [3] = conditions: testicular cross sections, 24 hours; HN 40 mg/Kg or CP 200 mg/Kg single IP
Experimental: Young adult mice (12-13 weeks) were randomly divided into 4 groups with 4 or 5 mice per group and received an IP injection: control (Con) (saline), HN (40 mg/Kg BW), CP (200 mg/Kg BW), and the combination of CP+HN. These experiments were repeated four times. In the CP+HN group, mice received an injection of HN followed by an injection of CP about 15 minutes later. Twenty-four hours after injections animals were sacrificed using 5% pentobarbital (200 mg/kg BW) IP injection. Blood was collected and one testis was removed, weighed and frozen in liquid nitrogen. The mouse was next perfused with saline and then subsequently perfuse-fixed with Bouin's solution as previously described and apoptosis was assessed by TUNEL assay (Lue, et al., 2009).
For detection of apoptosis in testicular sections, the paraffin embedded testis tissue was cut into 5 micron sections and stained with the TdT-mediated dUTP nick-end labeling assay (TUNEL Apoptosis Detection Kit, Millipore, Billerica, Mass.) to detect apoptosis of germ cells in the testis (Lue, et al., 2009). Testicular sections assayed by TUNEL were examined under a light microscope and the apoptotic germ cells were blindly and manually counted. The seminiferous tubules in the testis section under the microscope were grouped as stages IX-IV (early-late stages of spermatogenesis) and V-VIII (middle stages of spermatogenesis). Germ cell apoptosis was quantified as the number of seminiferous tubules containing apoptotic spermatogonia, spermatoctyes, round spermatids and spermatozoa per 100 seminiferous tubules (Drumond, et al., 2011).

For `COc1cccc2c1C(=O)c1c(O)c3c(c(O)c1C2=O)C[C@@](O)(C(=O)CO)C[C@@H]3O[C@H]1C[C@H](N)[C@H](O)[C@H](C)O1` [DOX, doxorubicin hydrochloride], the “germ cell apoptosis compared with control” value ([1]; HN 10 μg/mL alone or DOX 10 μM (high dose) alone, hydrochloride) was “significantly higher number of apoptotic germ cells”, the “germ cell apoptosis compared with control” value ([1]; HN 10 μg/mL alone or DOX 10 μM (high dose) alone, listed as doxorubicin, hydrochloride) was “significantly increased apoptosis” and the “germ cell apoptosis compared with control” value ([1]; doxorubicin 1 μM (low dose)) was “increased apoptosis but did not reach statistical difference”.
In the case of `CC[C@H](C)[C@H](NC(=O)[C@H](CCC(=O)O)NC(=O)[C@H](CO)NC(=O)[C@@H](NC(=O)[C@H](CC(C)C)NC(=O)[C@H](CC(C)C)NC(=O)[C@H](CC(C)C)NC(=O)[C@H](CC(C)C)NC(=O)[C@@H]1CCCN1C(=O)[C@H](CO)NC(=O)[C@H](Cc1ccccc1)NC(=O)CNC(=O)[C@H](CCCNC(=N)N)NC(=O)[C@@H]1CCCN1C(=O)[C@H](C)NC(=O)[C@@H](N)CCSC)[C@@H](C)O)C(=O)N[C@@H](CC(=O)O)C(=O)N[C@@H](CC(C)C)C(=O)N1CCC[C@H]1C(=O)N[C@H](C(=O)N[C@@H](CCCCN)C(=O)N[C@@H](CCCNC(=N)N)C(=O)N[C@@H](CCCNC(=N)N)C(=O)N[C@@H](C)C(=O)O)C(C)C` [HN-C8P] (H-MAPRGFSPLLLLTSEIDLPVKRRA-OH; N-terminus and C-terminus assumed), the “spontaneous germ cell apoptosis, peptide alone” value (from here on “spontaneous germ cell apoptosis”) (male germ cells [2]) is reported as “did not change”.
With `CC[C@H](C)[C@H](NC(=O)[C@H](CCC(=O)O)NC(=O)[C@H](CO)NC(=O)[C@@H](NC(=O)[C@H](C)NC(=O)[C@H](CC(C)C)NC(=O)[C@H](CC(C)C)NC(=O)[C@H](CC(C)C)NC(=O)[C@H](CS)NC(=O)[C@H](CO)NC(=O)[C@H](Cc1ccccc1)NC(=O)CNC(=O)[C@H](CCCNC(=N)N)NC(=O)[C@@H]1CCCN1C(=O)[C@H](C)NC(=O)[C@@H](N)CCSC)[C@@H](C)O)C(=O)N[C@@H](CC(=O)O)C(=O)N[C@@H](CC(C)C)C(=O)N1CCC[C@H]1C(=O)N[C@H](C(=O)N[C@@H](CCCCN)C(=O)N[C@@H](CCCNC(=N)N)C(=O)N[C@@H](CCCNC(=N)N)C(=O)N[C@@H](C)C(=O)O)C(C)C` [HN-L12A] (H-MAPRGFSCLLLATSEIDLPVKRRA-OH; N-terminus and C-terminus assumed) the “spontaneous germ cell apoptosis” value (male germ cells [2]) was “did not change”.
With `CC[C@H](C)[C@H](NC(=O)[C@H](CCC(=O)O)NC(=O)[C@H](CO)NC(=O)[C@@H](NC(=O)[C@H](CC(C)C)NC(=O)[C@H](CC(C)C)NC(=O)[C@H](CC(C)C)NC(=O)[C@H](CC(C)C)NC(=O)[C@H](CS)NC(=O)[C@H](C)NC(=O)[C@H](Cc1ccccc1)NC(=O)CNC(=O)[C@H](CCCNC(=N)N)NC(=O)[C@@H]1CCCN1C(=O)[C@H](C)NC(=O)[C@@H](N)CCSC)[C@@H](C)O)C(=O)N[C@@H](CC(=O)O)C(=O)N[C@@H](CC(C)C)C(=O)N1CCC[C@H]1C(=O)N[C@H](C(=O)N[C@@H](CCCCN)C(=O)N[C@@H](CCCNC(=N)N)C(=O)N[C@@H](CCCNC(=N)N)C(=O)N[C@@H](C)C(=O)O)C(C)C` [HN-S7A] (H-MAPRGFACLLLLTSEIDLPVKRRA-OH; N-terminus and C-terminus assumed) the “spontaneous germ cell apoptosis” value (male germ cells [2]) was “did not change”.
For `CC[C@H](C)[C@H](NC(=O)[C@H](CCC(=O)O)NC(=O)CNC(=O)[C@@H](NC(=O)[C@H](CC(C)C)NC(=O)[C@H](CC(C)C)NC(=O)[C@H](CC(C)C)NC(=O)[C@H](CC(C)C)NC(=O)[C@H](CS)NC(=O)[C@H](CO)NC(=O)[C@H](C)NC(=O)CNC(=O)[C@H](CCCNC(=N)N)NC(=O)[C@@H]1CCCN1C(=O)[C@H](C)NC(=O)[C@@H](N)CCSC)[C@@H](C)O)C(=O)N[C@@H](CC(=O)O)C(=O)N[C@@H](CC(C)C)C(=O)N1CCC[C@H]1C(=O)N[C@H](C(=O)N[C@@H](CCCCN)C(=O)N[C@@H](CCCNC(=N)N)C(=O)N[C@@H](CCCNC(=N)N)C(=O)N[C@@H](C)C(=O)O)C(C)C` [HNG-F6A] (H-MAPRGASCLLLLTGEIDLPVKRRA-OH; N-terminus and C-terminus assumed), the “spontaneous germ cell apoptosis” value (male germ cells [2]) was “did not change”.
`CC[C@H](C)[C@H](NC(=O)[C@H](CCC(=O)O)NC(=O)[C@H](CO)NC(=O)[C@@H](NC(=O)[C@H](CC(C)C)NC(=O)[C@H](CC(C)C)NC(=O)[C@H](CC(C)C)NC(=O)[C@H](CC(C)C)NC(=O)[C@H](CS)NC(=O)[C@H](CO)NC(=O)[C@H](Cc1ccccc1)NC(=O)CNC(=O)[C@H](CCCNC(=N)N)NC(=O)[C@@H]1CCCN1C(=O)[C@H](C)NC(=O)[C@@H](N)CCSC)[C@@H](C)O)C(=O)N[C@@H](CC(=O)O)C(=O)N[C@@H](CC(C)C)C(=O)N1CCC[C@H]1C(=O)N[C@H](C(=O)N[C@@H](CCCCN)C(=O)N[C@@H](CCCNC(=N)N)C(=O)N[C@@H](CCCNC(=N)N)C(=O)N[C@@H](C)C(=O)O)C(C)C` [HN] was tested, and the intratesticular testosterone levels (testosterone) was “no significant effects”, the serum testosterone levels (testosterone) was “no significant effects” and the “spontaneous germ cell apoptosis” value (male germ cells [2]) was “did not change”. For the same compound, the “germ cell apoptosis compared to control” value (male germ cells [3]) was “no significant effect” and the “germ cell apoptosis compared with control” value ([1]; HN 10 μg/mL alone or DOX 10 μM (high dose) alone) was “no significant effect”.
